Source: patent US20120225949A1, “COMPOSITIONS AND METHODS FOR TREATING BIPOLAR DISORDER” (priority 2009, published 2012)

Tests used:
[1] = system: Childhood-Onset Bipolar Disorder With FOH; experiment: Ketamine treatment of childhood-onset bipolar disorder with FOH (single-subject case report); format: in vivo, human; conditions: 2 intranasal puffs of ketamine
Text: Subject is a child referred by their parents for psychiatric care to address their intense and often violent rages.
Subject has had episodic rages that have escalated in frequency and intensity since their adoption at 18 months. They have always experienced extreme separation anxiety but their aggression has shifted from themself toward their parents since starting school. The abuse towards their parents has included hitting, kicking, biting, and propelling objects. Parents came for consultation for fear that Subject will become more dangerous as they age.
Subject is currently on seroquel—225 mg (50 mg time release mornings, 25 mg afternoon, 150 mg time release evenings), lithium 600 mg (300 mg mornings and evenings), and 2 intranasal puffs of ketamine.

[2] = cited from earlier work
[3] = Subject's earlier response to sedative/analgesic drugs (medical history); conditions: child, around adenoid removal
[4] = cited from earlier work; remark: listed apart in the source
[5] = system: PCP site of the NMDA receptor; conditions: (S)- versus (R)-ketamine; cited from earlier work

CNC1(c2ccccc2Cl)CCCCC1=O (stereo not drawn) [ketamine, [(2-2-chlorophenyl)-2-(methylamino)-cyclohexanone]]
coordination [1]: improved coordination
coping with transitions [1]: able to cope with transitions without the aid of transitional rituals
dependence on transitional objects [1]: decreased to the rare occasion
hallucinations [1]: complete remission
hoarding behavior [1]: ceased
motion sickness [1]: no more motion sickness
night sweats [1]: no longer complains of night sweats
physical well-being [1]: much improvement
sleep [1]: improved greatly
speech [1]: improved with much greater regularity in coherence, tempo, volume, and clarity
thirst on awakening [1]: no longer awakens extremely thirsty
delusions ([1]; except the last few days of the ketamine cycle): subsided
aggression ([1]; returns on occasion the few days prior to next administration): nearly disappeared
dreams ([1]; subject's report): “good dreams” have replaced their “bad dreams.”
overall response after the use of ketamine ([1]; child, with seroquel 225 mg and lithium 600 mg): quite notable changes in body temperature, speech, levels of fear, sleep, attention, aggression, and psychosis/delusions
dose at which mild adverse effects (dysphoria and/or hallucinations, "ketamine dreams") can occur ([2]; dose of ketamine): greater than 50 mg
dose usually required for mild adverse effects (dysphoria and/or hallucinations) ([2]; total dose intranasally): greater than 100 mg

Cc1ncc2n1-c1ccc(Cl)cc1C(c1ccccc1F)=NC2 [Versid]
response of subject to drug (medical history) [3]: extreme hyperactivity instead of relaxation

CN[C@@]1(c2ccccc2Cl)CCCCC1=O [(R)-ketamine]
hallucinogenic effect ([4]; in vivo): hallucinogenic

CN[C@]1(c2ccccc2Cl)CCCCC1=O [(S)-ketamine]
affinity for the PCP site of the NMDA receptor relative to (R)-ketamine [5]: about four
induction of drowsiness ([4]; comparison of enantiomers): more strongly than the (R) enantiomer
